Key:
Type in all cases: in vivo, rat
male Wister rats [1] = experiment: Histological findings of periodontium and alveolar bone in closed coil spring tooth movement; conditions: continuous systemic infusion group
From the text: It has been already clarified that the continuous administration of PTH and the intermittent administration thereof differ from each other in their effect on bones. Thus, attempts were made to examine how PTH administered by either method would affect the experimental tooth movement. Use was made of 12 male Wister rats weighing 350 to 400 g. In the continuous PTH-administration group, an osmotic pump (2ML2, manufactured by Alzet, Palo Alto, Calif., USA) was subcutaneously implanted into the dorsal part of each rat followed by the continuous infusion of hPTH (1-34) (manufactured by Peptide Institute Inc., Mino) in a dose of 0.4 μg/100 g body weight/day or 4 μg/100 g body weight/day. As the control groups, use was made of 2 groups including (1) one to which the vehicle was continuously infused, and (2) an intermittent administration group to which 4 μg/100 g body weight/day of PTH was subcutaneously injected into the dorsal part once a day. From the next day of the initiation of the PTH-administration, an ultra-elastic closed coil spring (509-21, manufactured by Tomy International, K.K., Tokyo) was put between the upper incisive tooth and the right first molar M1 followed by the mesial traction of M1 for 12 days (FIG. 6-A, B). After the initiation of the shifting, the precise impression of the upper jaw was taken every 3 days by using a silicone impression material (Exafine, manufactured by GC, Tokyo) and the distance between the first molar and the second molar (M2) was measured on ultra-hard gypsum models (FIG. 6-C). After the completion of shifting over 12 days, arterial blood was collected from the abdominal aorta and various serum parameters were measured. After sacrificing each rat, the upper jaw and the right thickening bone were taken out. […] The bone mineral content and bone mineral density of the isolated the femur were measured by dual-x-ray absorptometry (DCS-600, manufactured by Aloka, Tokyo, Japan). […]

male Wister rats [2] = experiment: Experimental tooth movement by closed coil spring (mesial shift of M1), systemic continuous infusion or intermittent injection; conditions: for mesial shift of M1 compared with control group: day 3
From the text: (§1) There are two methods for experimental tooth movement, i.e., one wherein an elastic band (made of rubber) is inserted between teeth and another one wherein a closed coil spring for orthodontics is used. The closed coil spring employed herein is Sentalloy closed coil spring 509-21 (made of Ni—Ti, manufactured by Tomy International K.K.) which can give an almost constant traction force of about 30 g within a spring-elongation range of 2 to 3 mm. […] When the initial elongation of the spring is regulated within the above-mentioned range, therefore, a constant force can be applied regardless of orthodontic tooth movement. When a rubber substance is inserted between molars, an extremely large force is applied immediately after the insertion but scarcely any force is applied after the target tooth is shifted by 0.5 mm. Accordingly, either the method with the insertion of an elastic (rubber) band or another one with the use of a closed coil spring may be used in experimental tooth movement within a short period of time. When a tooth is to be shifted over a long time, however, it is appropriate to use the latter method wherein the first molar is mesially shifted by elongating a closed coil spring. The method with the insertion of an elastic (rubber) band was employed in Example 1, while another method with the use of a closed coil spring was employed in Example 2.
It has been already clarified that the continuous administration of PTH and the intermittent administration thereof differ from each other in their effect on bones. Thus, attempts were made to examine how PTH administered by either method would affect the experimental tooth movement. Use was made of 12 male Wister rats weighing 350 to 400 g. In the continuous PTH-administration group, an osmotic pump (2ML2, manufactured by Alzet, Palo Alto, Calif., USA) was subcutaneously implanted into the dorsal part of each rat followed by the continuous infusion of hPTH (1-34) (manufactured by Peptide Institute Inc., Mino) in a dose of 0.4 μg/100 g body weight/day or 4 μg/100 g body weight/day. As the control groups, use was made of 2 groups including (1) one to which the vehicle was continuously infused, and (2) an intermittent administration group to which 4 μg/100 g body weight/day of PTH was subcutaneously injected into the dorsal part once a day. From the next day of the initiation of the PTH-administration, an ultra-elastic closed coil spring (509-21, manufactured by Tomy International, K.K., Tokyo) was put between the upper incisive tooth and the right first molar M1 followed by the mesial traction of M1 for 12 days (FIG. 6-A, B). After the initiation of the shifting, the precise impression of the upper jaw was taken every 3 days by using a silicone impression material (Exafine, manufactured by GC, Tokyo) and the distance between the first molar and the second molar (M2) was measured on ultra-hard gypsum models (FIG. 6-C). After the completion of shifting over 12 days, arterial blood was collected from the abdominal aorta and various serum parameters were measured. After sacrificing each rat, the upper jaw and the right thickening bone were taken out. The upper jaw was decalcificated and then cut into a paraffin section of 8 μm in thickness involving, in the direction of the major axis, the buccal mesial root and the buccal distal root followed by HE-staining and histological observation. The bone mineral content and bone mineral density of the isolated the femur were measured by dual-x-ray absorptometry (DCS-600, manufactured by Aloka, Tokyo, Japan).

male Wister rats [3] = experiment: Experimental tooth movement by closed coil spring (mesial shift of M1), local administration of sustained release dosage form; conditions: 1 μg/400 g locally injected every 2 days (sustained release), FIG. 15
From the text: as §1, with “2. […]” for “2.”

male Wister rats [4] = experiment: Histological change in pressured periodontia during teeth separation
Procedure: (§2) 18 rats were divided into 4 groups including a control group having 6 animals and 3 PTH-infusion groups each having 4 animals. PTH was dissolved in a citric acid-buffered saline containing 0.05% of Tween 80 and introduced into osmotic pumps. Then these pumps were implanted in the subcutus posterior region of the neck of the rats under ether anetheia. PTH was continuously infused into the rats in doses of 1, 3 and 10 μg/100 g body weight/day and the rats were fed with a standard pelletized feed (manufactured by Oriental Yeast Co., Ltd.). To the rats of the control group, vehicles were exclusively administered. 48 hours after implanting, a piece of an elastic band (0.8 mm in thickness) was inserted between the right upper first molar and second molar (between M1 and M2) of each rat under ether anetheia in accordance with the method of Wong-Rothblatt (1954) as shown in FIG. 1(A). On day 3 of the teeth separation, the rat was sacrificed by ether-inhalation. After cutting out the upper jaw, the distance between the adjacent faces of M1 and M2 was measured with the combined use of contact gauges (manufactured by Sun Dental, Osaka) of 50, 100 and 150 μm in thickness (FIGS. 1(B) and (C)). In the case of the control group, a contact gauge of 50 μm could be inserted between M1 and M2. Thus, the interdental distance was calculated by subtracting 50 μm from the measured distance of each animal. […] The upper jaw was fixed in 4% paraformaldehyde, decalcificated in 4% formic acid and then implanted in paraffin. Subsequently, these preparations were cut into continuous mesiodistal sections of 8 μm in thickness and stained with hematoxylin and eosin. Histological examinations were all performed in the pressured side of the M1 interradicular septa and osteoclasts in the area of 300×700 μm^2 in this region were counted (FIG. 1(C)). Osteoclasts were counted based on the fact that they were large multinuclear cells having been stained with eosin and located adjacent to the bone surface. The statistic differences between the control group and the test group was evaluated in accordance with Wilcoxon's rank-sum calibration method. Each of the data was expressed in average±SEM. A P value less than 0.05 was regarded as being statistically significant.
32 rats were divided into 2 test groups each having 16 animals. […] To the rats of the control group, vehicles were exclusively administered. 2 days after implanting osmotic pumps, an elastic band was inserted between the right M1 and M2 of each rat. On days 0, 1, 3 and 5 of the teeth separation (i.e., on days 2, 3, 5 and 7 of the PTH infusion), the rats were sacrificed followed by the same procedures as those performed in Experiment 1.

male Wister rats [5] = experiment: Experimental tooth movement by elastic band inserted between M1 and M2 (teeth separation), continuous PTH infusion
From the text: as §1
as §2, with “Subsequently, these preparations were cut into continuous mesiodistal sections of 8 μm in thickness and stained with hematoxylin and eosin.” left out, “Each of the data was expressed in average±SEM. A P value less than 0.05 was regarded as being statistically significant.” left out

osteoclasts = experiment: Osteoclast count in the pressured side of the M1 interradicular septa during teeth separation; conditions: for osteoclast count in the pressured side compared with control group: 10 μg/100 g body weight/day infusion, FIG. 5
Procedure: as §2, with “Subsequently, these preparations were cut into continuous mesiodistal sections of 8 μm in thickness and stained with hematoxylin and eosin.” left out, “Each of the data was expressed in average±SEM. A P value less than 0.05 was regarded as being statistically significant.” left out

[6] = 1 μg/100 g body weight/day and 3 μg/100 g body weight/day groups

For human PTH (1-34) [hPTH (1-34)], the “bone resorption in the mesial alveolar bone of M1 compared with control group” value (male Wister rats [1]) was “energetic bone resorption”, the “bone resorption in the distal side of the alveolar septum” value (male Wister rats [1]; FIG. 16-B) was “remarkable bone resorption was observed over a wide range” and the “necrotic tissue in the periodontal membrane, compared with control group” value (male Wister rats [1]; FIG. 16-B) was “no such necrotic tissue”. For the same molecule, the tooth shift-promoting effect (male Wister rats [2]; continuous PTH infusion group, after day 9, FIG. 10) was “observed more remarkably”, the “mesial shift of M1 compared with control group” value (male Wister rats [2]; continuous PTH infusion group, FIG. 10) was “slightly significantly promoted” and the “mesial shift of M1 relative to control group” value (male Wister rats [2]; continuous infusion of 4 μg/100 g body weight/day, day 12) was “twice”. The “mesial shift of M1” value (male Wister rats [2]; continuous infusion of 4 μg/100 g body weight/day, day 12 of tooth movement) was 1.01±0.09 mm, the “shift of M1, dose dependence” value (male Wister rats [2]; continuous infusion of 0.4 or 4 μg/100 g body weight/day, day 12, FIG. 7) was “promoted depending on the dose” and the “mesial shift of M1 compared with control group” value (male Wister rats [2]; intermittent PTH injection group (4 μg/100 g body weight/day s.c. once a day), FIG. 10) was “slightly significantly promoted”. The “M1 shifting distance compared with control group” value (male Wister rats [2]; intermittent PTH injection group, after day 6, FIG. 10) was “no significant difference”, the tooth movement-promoting effect (male Wister rats [3]; after day 9) was “more remarkable” and the “mesial M1 shift” value (male Wister rats [3]; since day 3) was “tendency that the mesial M1 shift was promoted”.

B1: human PTH (1-84) (protein, UniProt P01270 32-115, looked up)
Parathyroid hormone: SVSEIQLMHNLGKHLNSMERVEWLRKKLQDVHNFVALGAPLAPRDAGSQRPRKKEDNVLVESHEKSLGEADKADVNVLTKAKSQ
modifications: Parathyroid hormone
notes: recombinant human parathyroid hormone consisting of 84 amino acid residues
B1 was tested, and the “bone resorption compared with vehicle-treated rats” value (male Wister rats [4]; [6]) was “bone resorption seemingly arose over wider range”, the “necrotic tissue in the pressured periodontia” value (male Wister rats [4]; [6]) was “necrotic tissue was also observed” and the “necrotic tissue in the pressured periodontia” value (male Wister rats [4]; 10 μg/100 g body weight/day, day 1 of teeth separation) was “necrotic tissue was observed”. The “necrotic tissue in the pressured periodontia” value (male Wister rats [4]; 10 μg/100 g body weight/day, day 3 of teeth separation) was “no necrosis”, the “distance between M1 and M2 compared with control group” value (male Wister rats [5]; Experiment 1, 10 μg/100 g body weight/day continuous infusion, elastic band for 3 days, FIG. 2) was “significant increase” and the “teeth separation distance compared with control group” value (male Wister rats [5]; Experiment 2, 10 μg/100 g body weight/day infusion, day 1, FIG. 3) was “no significant difference”. For the same molecule, the “teeth separation distance compared with control group” value (male Wister rats [5]; Experiment 2, 10 μg/100 g body weight/day infusion, day 3, FIG. 3) was “significant increase”, the teeth separation (male Wister rats [5]; Experiment 2, 10 μg/100 g body weight/day infusion, day 5, FIG. 3) was “almost reached the limit” and the “dose of PTH infusion achieving the maximum effect on teeth separation” value (male Wister rats [5]; continuous infusion of 1, 3 and 10 μg/100 g body weight/day, day 3 of teeth separation, FIG. 2) was 10 μg/100 g body weight/day. For the same molecule, the “osteoclast count in the pressured side compared with control group” value (osteoclasts; day 5) was “no significant difference”, the “osteoclast count in the pressured side compared with control group” value (osteoclasts; from day 1) was “significant increase” and the “osteoclast count in the pressured side of the periodontia, test groups and control group compared” value (osteoclasts; 1, 3 and 10 μg/100 g body weight/day infusion (all 3 test groups), elastic band for 3 days, FIG. 4) was “significant increase”.

Reference: patent US20040204342A1, “Orthodontic remedies containing” (CHUGAI SEIYAKU KABUSHIKI KAISHA, priority 1996, published 2004)
